Test results published in ChEMBL document CHEMBL1201862, “PubChem BioAssay data set” (2004).
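Following 48 hours of exposure in 96-well plates, responses at five concentrations were used to interpolate endpoints linearly. Here, GI50 denotes the concentration required for 50% inhibition of growth.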 Active and inactive are the calls of the source. No stated cut-off is given here; in the data, active = GI50 up to about 1.1 µM and inactive = higher.

Experiments:
Assay in all cases: DTP human tumour cell line panel, 48 h
M14 = tested on: M14
786-0 = tested on: 786-0
SF-295 = tested on: SF-295
DU-145 = tested on: DU-145
KM12 = tested on: KM12
SR = tested on: SR
MDA-MB-435 = tested on: MDA-MB-435
OVCAR-4 = tested on: OVCAR-4
MDA-MB-231 = tested on: MDA-MB-231
OVCAR-8 = tested on: OVCAR-8
NCI-H226 = tested on: NCI-H226
NCI/ADR-RES = tested on: NCI/ADR-RES
NCI-H460 = tested on: NCI-H460
A549 = tested on: A549
UACC-257 = tested on: UACC-257
MOLT-4 = tested on: MOLT-4
HOP-62 = tested on: HOP-62
UACC-62 = tested on: UACC-62
SNB-19 = tested on: SNB-19
T47D = tested on: T47D

Row | Structure (SMILES) | GI50 (M14) | GI50 (786-0) | GI50 (SF-295) | GI50 (DU-145) | GI50 (KM12) | GI50 (SR) | GI50 (MDA-MB-435) | GI50 (OVCAR-4) | GI50 (MDA-MB-231) | GI50 (OVCAR-8) | GI50 (NCI-H226) | GI50 (NCI/ADR-RES) | GI50 (NCI-H460) | GI50 (A549) | GI50 (UACC-257) | GI50 (MOLT-4) | GI50 (HOP-62) | GI50 (UACC-62) | GI50 (SNB-19) | GI50 (T47D)
1 | CC1CCOc2ccc(cc2)/C=N\c2ccc(cc2)-c2ccc(cc2)/N=C\c2ccc(cc2)OCC1 | > 100 µM (inactive) | > 100 µM (inactive) | > 100 µM (inactive) | > 100 µM (inactive) | > 100 µM (inactive) | > 100 µM (inactive) | > 100 µM (inactive) | > 100 µM (inactive) | > 100 µM (inactive) | > 100 µM (inactive) | > 100 µM (inactive) | > 100 µM (inactive) | > 100 µM (inactive) | > 100 µM (inactive) | > 100 µM (inactive) | > 100 µM (inactive) | – | – | – | –
2 | O=C(CNc1nccs1)Nn1cnc2ccc(S(=O)(=O)Nc3nccs3)cc2c1=O | > 100 µM (inactive) | > 100 µM (inactive) | > 100 µM (inactive) | > 100 µM (inactive) | > 100 µM (inactive) | 35.6 µM (inactive) | > 100 µM (inactive) | > 100 µM (inactive) | > 100 µM (inactive) | > 100 µM (inactive) | > 100 µM (inactive) | > 100 µM (inactive) | > 100 µM (inactive) | > 100 µM (inactive) | > 100 µM (inactive) | > 100 µM (inactive) | > 100 µM (inactive) | > 100 µM (inactive) | > 100 µM (inactive) | –
3 | CC1(C)CC(=O)C(C(=O)Nc2cccs2)=C(O)C1 | 36.7 µM (inactive) | 49.9 µM (inactive) | 28.9 µM (inactive) | – | 38.1 µM (inactive) | 29.9 µM (inactive) | – | 31.1 µM (inactive) | – | 34.8 µM (inactive) | 23.4 µM (inactive) | – | 35.9 µM (inactive) | 32.1 µM (inactive) | 47.9 µM (inactive) | 28 µM (inactive) | 34.8 µM (inactive) | 29.2 µM (inactive) | 31.1 µM (inactive) | –
4 | Cc1ccc(S(=O)(=O)Nn2c(-c3ccccc3)c(C#N)c(-c3ccc(Cl)cc3)c(C#N)c2=O)cc1 | 18.4 µM (inactive) | 6.79 µM (inactive) | 26.8 µM (inactive) | – | – | – | 33.3 µM (inactive) | 38.8 µM (inactive) | 20 µM (inactive) | – | – | – | 27.9 µM (inactive) | 26.9 µM (inactive) | 32.8 µM (inactive) | 18.7 µM (inactive) | 30.1 µM (inactive) | 16.1 µM (inactive) | 31.2 µM (inactive) | –
5 | [N-]=[N+]=CC(=O)OC1CCc2ccccc21 (configuration not stated) | – | 61.9 µM (inactive) | 40.8 µM (inactive) | 12.8 µM (inactive) | – | > 100 µM (inactive) | > 100 µM (inactive) | > 100 µM (inactive) | 44.1 µM (inactive) | – | > 100 µM (inactive) | – | 47.8 µM (inactive) | – | > 100 µM (inactive) | – | 55.2 µM (inactive) | > 100 µM (inactive) | > 100 µM (inactive) | –
6 | CN(C)C(=S)/N=c1\ssc(=S)n1C1CCCCC1 | 14.7 µM (inactive) | 17.1 µM (inactive) | 60.5 µM (inactive) | – | 35.7 µM (inactive) | 20.5 µM (inactive) | – | 39.4 µM (inactive) | – | 21.4 µM (inactive) | 52.5 µM (inactive) | – | 18 µM (inactive) | 22.8 µM (inactive) | 22.4 µM (inactive) | 18.2 µM (inactive) | > 100 µM (inactive) | 10.4 µM (inactive) | 57.7 µM (inactive) | –
7 | CCCCCCCCCCCCCCCC(=O)OCC1CCCN2CCCCC12 (configuration not stated) | > 100 µM (inactive) | > 100 µM (inactive) | > 100 µM (inactive) | > 100 µM (inactive) | > 100 µM (inactive) | – | > 100 µM (inactive) | > 100 µM (inactive) | > 100 µM (inactive) | > 100 µM (inactive) | > 100 µM (inactive) | > 100 µM (inactive) | > 100 µM (inactive) | > 100 µM (inactive) | > 100 µM (inactive) | > 100 µM (inactive) | > 100 µM (inactive) | > 100 µM (inactive) | > 100 µM (inactive) | –
8 | CC(C)=CCC/C(C)=C/CCC1(C)C2COC(=O)C21 (configuration not stated) | – | > 100 µM (inactive) | 77.4 µM (inactive) | 60.5 µM (inactive) | 34.9 µM (inactive) | 37 µM (inactive) | 65.5 µM (inactive) | 42.8 µM (inactive) | > 100 µM (inactive) | – | > 100 µM (inactive) | – | 36.2 µM (inactive) | – | > 100 µM (inactive) | 30.9 µM (inactive) | > 100 µM (inactive) | > 100 µM (inactive) | 82.8 µM (inactive) | –
9 | Cc1c(C(=O)O)c2cc3ccccc3cc2c(=O)n1C | > 10 µM (inactive) | > 10 µM (inactive) | > 10 µM (inactive) | – | > 10 µM (inactive) | > 10 µM (inactive) | > 10 µM (inactive) | > 10 µM (inactive) | > 10 µM (inactive) | > 10 µM (inactive) | > 10 µM (inactive) | > 10 µM (inactive) | > 10 µM (inactive) | > 10 µM (inactive) | > 10 µM (inactive) | – | – | > 10 µM (inactive) | > 10 µM (inactive) | > 10 µM (inactive)
10 | COc1ccc(CN2C(=O)[C@@H]3Cc4c(OC)c(C)c(OC)c(OC)c4[C@H](/C2=C\c2cc(OC)c(OC)c(C)c2OC)N3C(=O)OC(C)C)cc1 | 28.4 µM (inactive) | > 100 µM (inactive) | 96.2 µM (inactive) | – | > 100 µM (inactive) | 6.53 µM (inactive) | – | 50.7 µM (inactive) | – | > 100 µM (inactive) | 5.57 µM (inactive) | – | 15.8 µM (inactive) | 58.9 µM (inactive) | 8.28 µM (inactive) | 6.97 µM (inactive) | 65 µM (inactive) | 48.6 µM (inactive) | > 100 µM (inactive) | –
11 | COc1cc(COC(=O)N(C)[C@@H](Cc2ccccc2)C(=O)O)c([N+](=O)[O-])cc1OC | > 100 µM (inactive) | > 100 µM (inactive) | > 100 µM (inactive) | > 100 µM (inactive) | > 100 µM (inactive) | – | > 100 µM (inactive) | – | – | > 100 µM (inactive) | > 100 µM (inactive) | > 100 µM (inactive) | > 100 µM (inactive) | > 100 µM (inactive) | > 100 µM (inactive) | > 100 µM (inactive) | > 100 µM (inactive) | > 100 µM (inactive) | > 100 µM (inactive) | > 100 µM (inactive)
12 | COc1ccc2c(c1)CCC1C3(CCCC21C)OCCO3 (configuration not stated) | 18.8 µM (inactive) | 18.5 µM (inactive) | 19.3 µM (inactive) | – | 20.3 µM (inactive) | 20.4 µM (inactive) | – | 29.4 µM (inactive) | – | 17.5 µM (inactive) | 17.4 µM (inactive) | – | 16.3 µM (inactive) | 26.9 µM (inactive) | 20.8 µM (inactive) | 14.4 µM (inactive) | 13.8 µM (inactive) | 15.4 µM (inactive) | 28.9 µM (inactive) | –
13 | C[Si](C)(C)c1ccc(-c2sc(-c3ccc([Si](C)(C)C)s3)c3c2C[Si]2(C3)Cc3c(-c4ccc([Si](C)(C)C)s4)sc(-c4ccc([Si](C)(C)C)s4)c3C2)s1 | > 100 µM (inactive) | > 100 µM (inactive) | > 100 µM (inactive) | – | > 100 µM (inactive) | > 100 µM (inactive) | – | > 100 µM (inactive) | – | > 100 µM (inactive) | > 100 µM (inactive) | – | > 100 µM (inactive) | > 100 µM (inactive) | > 100 µM (inactive) | > 100 µM (inactive) | > 100 µM (inactive) | > 100 µM (inactive) | > 100 µM (inactive) | –
14 | COc1cc([C@H]2c3[nH]c4ccccc4c3C[C@H]3COC(=O)N32)cc(OC)c1O | < 0.0386 µM (active) | 0.145 µM (active) | 0.0189 µM (active) | – | 0.0202 µM (active) | 0.0132 µM (active) | < 0.01 µM (active) | 39.3 µM (inactive) | 0.0408 µM (active) | 0.131 µM (active) | 0.422 µM (active) | 0.0667 µM (active) | 0.0312 µM (active) | 0.0792 µM (active) | > 100 µM (inactive) | 0.0488 µM (active) | 0.0462 µM (active) | 0.0209 µM (active) | 4.9 µM (inactive) | 42.4 µM (inactive)
15 | CCC(CCCN)Nc1cc(OC)cc2c(C)ccnc12 (configuration not stated) | 15.2 µM (inactive) | 15.4 µM (inactive) | 17.3 µM (inactive) | 17.5 µM (inactive) | 14.9 µM (inactive) | 15.3 µM (inactive) | 14.8 µM (inactive) | 17.8 µM (inactive) | 13.3 µM (inactive) | 21.1 µM (inactive) | 13.3 µM (inactive) | 25.1 µM (inactive) | 17.7 µM (inactive) | 15.6 µM (inactive) | 17.9 µM (inactive) | 15.8 µM (inactive) | 15.1 µM (inactive) | > 10 µM (inactive) | 11.3 µM (inactive) | –
16 | COC(=O)c1c[nH]c(=O)[nH]c1=O [ISOOROTIC ACID METHYL ESTER] | > 100 µM (inactive) | > 100 µM (inactive) | > 100 µM (inactive) | > 100 µM (inactive) | > 100 µM (inactive) | > 100 µM (inactive) | > 100 µM (inactive) | – | – | > 100 µM (inactive) | – | > 100 µM (inactive) | > 100 µM (inactive) | > 100 µM (inactive) | > 100 µM (inactive) | > 100 µM (inactive) | – | > 100 µM (inactive) | > 100 µM (inactive) | > 100 µM (inactive)
